Reference: patent US9255101B2 (BIOPROJECT, priority 2012, dated 2016)

Legend:
human H4 receptor [1] = biological target: T1, human H4 receptor (Homo sapiens, UniProt Q9H3N8); experiment: biochemical
human H4 receptor [2] = biological target: T1, human H4 receptor; experiment: biochemical; remark: listed apart in the source
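Wherever IC50 is given: membranes from SH-SY5Y cells with stable human H4 receptor expression, incubated with GDP 10 µM, radioactivity retained on filters counted by liquid scintillation.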
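Wherever Ki is given: radioligand displacement of a [3H]-labelled ligand from membranes of CHO cells stably expressing human H4 receptor, bound radioactivity counted on filters by liquid scintillation.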

melting point [°C]	IC50 (human H4 receptor [1]) [nM]	Ki (human H4 receptor [2]) [nM]	Compound
113	< 300	< 300	CN1CCC(OC2c3ccccc3CCn3cc(-c4ccccc4)nc32)CC1 (stereo not shown) [Example 4, 4-(1-methylpiperidin-4-yloxy)-2-phenyl-9,10-dihydro-4H-3,10a-diaza-benzo[f]azulene]
85	–	< 1000	Cc1c(C(O)c2ccccc2)nc2n1CCc1ccccc1C2OC1CCN(C)CC1.O=CO (stereo not shown) [Example 201, [1-methyl-4-(1-methylpiperidin-4-yloxy)-9,10-dihydro-4H-3,10a-diaza-benzo[f]azulen-2-yl]phenylmethanol, formic acid salt]
195	–	< 1000	CN1CCC(OC2c3ccccc3CCn3c2nc(I)c3C#N)CC1 (stereo not shown) [Example 221, 2-iodo-4-(1-methylpiperidin-4-yloxy)-9,10-dihydro-4H-3,10a-diaza-benzo[f]azulene-1-carbonitrile]
95	–	< 30	CN1CCC(OC2c3ccccc3CCn3c2nc(-c2ccc(C(=O)OC(C)(C)C)cc2)c3C#N)CC1 (stereo not shown) [Example 224, 4-[1-cyano-4-(1-methylpiperidin-4-yloxy)-9,10-dihydro-4H-3,10a-diaza-benzo[f]azulen-2-yl]-benzoic acid tert-butyl ester]
83	–	< 300	CN1CCC(OC2c3cccc(Br)c3CCn3cc(-c4ccccc4)nc32)CC1 (stereo not shown) [Example 231, 8-Bromo-4-(1-methyl-piperidin-4-yloxy)-2-phenyl-9,10-dihydro-4H-3,10a-diaza-benzo[f]azulene]
134	–	< 1000	CSc1cccc2c1CCn1cc(-c3ccccc3)nc1C2OC1CCN(C)CC1 (stereo not shown) [Example 234, 4-(1-methylpiperidin-4-yloxy)-8-methylsulfanyl-2-phenyl-9,10-dihydro-4H-3,10a-diaza-benzo[f]azulene]
95	–	< 300	CN1CCC(OC2c3cccc(-c4ccc(F)cc4)c3CCn3cc(-c4ccccc4)nc32)CC1 (stereo not shown) [Example 240, 8-(4-fluorophenyl)-4-(1-methylpiperidin-4-yloxy)-2-phenyl-9,10-dihydro-4H-3,10a-diaza-benzo[f]azulene]
93	–	< 300	COc1cccc(-c2cccc3c2CCn2cc(-c4ccccc4)nc2C3OC2CCN(C)CC2)c1 (stereo not shown) [Example 241, 8-(3-methoxyphenyl)-4-(1-methylpiperidin-4-yloxy)-2-phenyl-9,10-dihydro-4H-3,10a-diaza-benzo[f]azulene]
120	–	< 1000	CN1CCC(OC2c3cccc(-c4cccc(N)c4)c3CCn3cc(-c4ccccc4)nc32)CC1 (stereo not shown) [Example 242, 3-[4-(1-methylpiperidin-4-yloxy)-2-phenyl-9,10-dihydro-4H-3,10a-diaza-benzo[f]azulen-8-yl]-phenylamine]
189	–	< 1000	CNc1cccc2c1CCn1cc(-c3ccccc3)nc1C2OC1CCN(C)CC1 (stereo not shown) [Example 244, methyl-[4-(1-methylpiperidin-4-yloxy)-2-phenyl-9,10-dihydro-4H-3,10a-diaza-benzo[f]azulen-8-yl]-amine]
73	–	< 1000	COc1cccc2c1CCn1cc(-c3ccccc3)nc1C2OC1CCN(C)CC1 (stereo not shown) [Example 245, 8-methoxy-4-(1-methylpiperidin-4-yloxy)-2-phenyl-9,10-dihydro-4H-3,10a-diaza-benzo[f]azulene]
68	–	< 1000	CN1CCC(OC2c3cccc(OCc4ccccc4)c3CCn3cc(-c4ccccc4)nc32)CC1 (stereo not shown) [Example 248, 8-benzyloxy-4-(1-methylpiperidin-4-yloxy)-2-phenyl-9,10-dihydro-4H-3,10a-diaza-benzo[f]azulene]
67	–	< 1000	CN1CCC(OC2c3cccc(CCc4ccccc4)c3CCn3cc(-c4ccccc4)nc32)CC1 (stereo not shown) [Example 249, 4-(1-methyl-piperidin-4-yloxy)-8-phenethyl-2-phenyl-9,10-dihydro-4H-3,10a-diaza-benzo[f]azulene]
90	–	< 300	CN1CCC(OC2c3ccccc3CCn3c2nc(-c2ccccc2)c3-c2ccccc2)CC1 (stereo not shown) [Example 252, 4-(1-methylpiperidin-4-yloxy)-1,2-diphenyl-9,10-dihydro-4H-3,10a-diaza-benzo[f]azulene]
70	–	< 300	CN1CCC(OC2c3ccccc3CCn3c2nc(-c2ccccc2)c3C=O)CC1 (stereo not shown) [Example 262, 4-(1-methylpiperidin-4-yloxy)-2-phenyl-9,10-dihydro-4H-3,10a-diaza-benzo[f]azulene-1-carbaldehyde]

Second part, the molecule before the results:

Compound	melting point [°C]	IC50 (human H4 receptor [1]) [nM]	Ki (human H4 receptor [2]) [nM]
CN1CCC(OC2c3ccccc3CCn3cc(-c4ccc(Br)cc4)nc32)CC1 (stereo not shown) [Example 81, 2-(4-bromophenyl)-4-(1-methylpiperidin-4-yloxy)-9,10-dihydro-4H-3,10a-diaza-benzo[f]azulene]	142	< 30	< 30
CN1CCC(OC2c3ccccc3CCn3c2nc(-c2ccc(Br)cc2)c3Cl)CC1 (stereo not shown) [Example 127, 2-(4-bromophenyl)-1-chloro-4-(1-methylpiperidin-4-yloxy)-9,10-dihydro-4H-3,10a-diaza-benzo[f]azulene]	169	< 30	< 30
Cc1c(C(=O)c2ccccc2)nc2n1CCc1ccccc1C2OC1CCN(C)CC1.O=CO (stereo not shown) [Example 202, [1-methyl-4-(1-methylpiperidin-4-yloxy)-9,10-dihydro-4H-3,10a-diaza-benzo[f]azulen-2-yl]phenylmethanone, formic acid salt]	71	–	< 1000
Cc1c(C(=O)N(C)Cc2ccccc2)nc2n1CCc1ccccc1C2OC1CCN(C)CC1 (stereo not shown) [Example 203, 1-methyl-4-(1-methylpiperidin-4-yloxy)-9,10-dihydro-4H-3,10a-diaza-benzo[f]azulene-2-carboxylic acid benzylmethylamide]	61	–	< 1000
Cc1c(C(=O)N(C)c2ccccc2)nc2n1CCc1ccccc1C2OC1CCN(C)CC1 (stereo not shown) [Example 204, 1-methyl-4-(1-methylpiperidin-4-yloxy)-9,10-dihydro-4H-3,10a-diaza-benzo[f]azulene-2-carboxylic acid methylphenylamide]	75	–	< 1000
CCCNC(=O)c1nc2n(c1C)CCc1ccccc1C2OC1CCN(C)CC1 (stereo not shown) [Example 205, 1-methyl-4-(1-methylpiperidin-4-yloxy)-9,10-dihydro-4H-3,10a-diaza-benzo[f]azulene-2-carboxylic acid propylamide]	60	–	< 1000
CN1CCC(OC2c3ccccc3CC(C)(C)n3cc(-c4ccccc4)nc32)CC1 (stereo not shown) [Example 230, 10,10-dimethyl-4-(1-methylpiperidin-4-yloxy)-2-phenyl-9,10-dihydro-4H-3,10a-diaza-benzo[f]azulene]	85	–	< 1000
CN1CCC(OC2c3cccc(Cc4ccccc4)c3CCn3cc(-c4ccccc4)nc32)CC1 (stereo not shown) [Example 233, 8-benzyl-4-(1-methylpiperidin-4-yloxy)-2-phenyl-9,10-dihydro-4H-3,10a-diaza-benzo[f]azulene]	66	–	< 1000
Cc1cccc2c1CCn1cc(-c3ccccc3)nc1C2OC1CCN(C)CC1 (stereo not shown) [Example 236, 8-methyl-4-(1-methylpiperidin-4-yloxy)-2-phenyl-9,10-dihydro-4H-3,10a-diaza-benzo[f]azulene]	71	–	< 300
C=CCCc1cccc2c1CCn1cc(-c3ccccc3)nc1C2OC1CCN(C)CC1.O=C(O)C(=O)O (stereo not shown) [Example 237, 8-but-3-enyl-4-(1-methylpiperidin-4-yloxy)-2-phenyl-9,10-dihydro-4H-3,10a-diaza-benzo[f]azulene, oxalate]	107	–	< 1000
CCCc1c(-c2ccccc2)nc2n1CCc1ccccc1C2OC1CCN(C)CC1 (stereo not shown) [Example 238, 4-(1-methylpiperidin-4-yloxy)-2-phenyl-1-propyl-9,10-dihydro-4H-3,10a-diaza-benzo[f]azulene]	144	–	< 300
Cc1ccccc1-c1cccc2c1CCn1cc(-c3ccccc3)nc1C2OC1CCN(C)CC1 (stereo not shown) [Example 239, 4-(1-methylpiperidin-4-yloxy)-2-phenyl-8-o-tolyl-9,10-dihydro-4H-3,10a-diaza-benzo[f]azulene]	94	–	< 1000
CC(C)c1c(-c2ccccc2)nc2n1CCc1ccccc1C2OC1CCN(C)CC1.O=C(O)C(=O)O.O=C(O)C(=O)O (stereo not shown) [Example 243, 1-isopropyl-4-(1-methylpiperidin-4-yloxy)-2-phenyl-9,10-dihydro-4H-3,10a-diaza-benzo[f]azulene dioxalate]	90	–	< 300
CN1CCC(OC2c3ccccc3CCn3c2nc(-c2ccccc2)c3I)CC1 (stereo not shown) [Example 247, 1-iodo-4-(1-methylpiperidin-4-yloxy)-2-phenyl-9,10-dihydro-4H-3,10a-diaza-benzo[f]azulene]	153	–	< 30
CN1CCC(OC2c3ccccc3CCn3c2nc(I)c3C(N)=O)CC1 (stereo not shown) [Example 253, 2-iodo-4-(1-methylpiperidin-4-yloxy)-9,10-dihydro-4H-3,10a-diaza-benzo[f]azulene-1-carboxylic acid amide]	85	–	< 1000
CN1CCC(OC2c3ccc(Br)cc3CCn3cc(-c4ccccc4)nc32)CC1 (stereo not shown) [Example 261, 7-bromo-4-(1-methylpiperidin-4-yloxy)-2-phenyl-9,10-dihydro-4H-3,10a-diaza-benzo[f]azulene]	92	–	< 300
C=C(C)Cc1nc2n(c1CC(=C)C)CCc1ccccc1C2OC1CCN(C)CC1.O=C(O)C(=O)O.O=C(O)C(=O)O (stereo not shown) [Example 267, 1,2-bis-(2-methylallyl)-4-(1-methylpiperidin-4-yloxy)-9,10-dihydro-4H-3,10a-diaza-benzo[f]azulene dioxalate]	70	–	< 300
